Results published in patent US11440880B2, “Thalidomide analogs and methods of use” (The USA, as represented by the Secretary, Department of …, priority 2015, dated 2022).
“Also recorded” adds a separate entry of the source.

Experiments:
[1] = test system: mpo:GFP zebrafish embryos (neutrophil migration to the wound site); experiment: mpo:GFP zebrafish fin-clip neutrophil migration (inflammation) assay; format: in vivo; set-up: mpo:GFP inflammation n (survived/tested): concentration or dose not given beside the values; details: for minimal effective concentration: Danio rerio, Neutrophil, lowest concentration producing an effect, compounds not producing an effect shown at the highest evaluated concentration; for mpo:GFP inflammation n (survived/tested): embryos survived/tested at the concentration given
Procedure, shortened: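 Tg(mpo::EGFP) larvae tail-fin clipped (dorsal third removed) at 72 hpf, then immersed in compound or vehicle. Neutrophils migrating to the wound site counted from images 24 h later; at least 50% reduction scored as anti-inflammatory. Viability and morphology also assessed.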

[2] = test system: fli1:EGFP zebrafish embryos (intersegmental vessel growth); experiment: fli1:EGFP zebrafish embryo angiogenesis assay; format: in vivo; set-up: fli1:EGFP angiogenesis n (survived/tested): concentration or dose not given beside the values; details: for minimal effective concentration: Danio rerio, lowest concentration producing an effect, compounds not producing an effect shown at the highest evaluated concentration; for fli1:EGFP angiogenesis n (survived/tested): embryos alive after 24 hours of exposure
Procedure, shortened: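 fli1:EGFP embryos grown 24 hpf, dechorionated and exposed to compound or vehicle over a range of concentrations for up to 24 h, with CPS49 as positive control. Imaged at 48 hpf for intersegmental vessel formation and growth; survival after 24 h exposure recorded, and values reflect the lowest concentration producing an effect.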

chicken embryos = experiment: Chicken embryo development / teratogenicity; format: in vivo, white leghorn chicken; details: in words; applied at HH stage 17-18
Description: Chicken Embryology: Fertilized white leghorn chicken embryos were incubated at 38° C. and staged according to Hamburger and Hamilton (HH) stages of development (1951). Embryos were tested at HH stage 17-18 (day 2.5). Following membrane removal, test compounds or vehicle control solutions were applied globally over the embryo. The eggs were sealed and the development of the embryos was monitored up to HH stage 30 (E9).
Compounds of interest were screened in chicken embryos (FIGS. 7I-7P).
(§1) Concentrations used in the WT zebrafish and chicken embryo assays to assess for teratogenesis, were equal to or higher than those utilized in the fil1:EGFP and mpo:GFP zebrafish assays

[3] = test system: human saphenous vein sections (microvessel outgrowth); experiment: Human saphenous vein assay of angiogenesis (ex vivo); format: cell-based; details: positive control, 10 days of incubation
Description: The saphenous vein was cleaned of subcutaneous tissue and embedded in Matrigel® matrix as previously described. After 10 days of incubation, the transverse sections of the veins were imaged. The outgrowth between the vehicle and no treatment (media) control was equivalent (106.65%±20.14, n=2 and 103.35%±4.06, n=2 respectively; FIGS. 13A and 13B).

[4] = test system: nitrite levels in the culture media; experiment: Nitrite level (Griess Reagent System) in LPS-challenged RAW 264.7 cells; format: cell-based, mouse; set-up: key: NS=not significant; a “+” sign=anti-inflammatory or increased cell numbers; a “−” sign=cell toxicity or pro-inflammatory; details: LPS 30 or 60 ng/mL, 24 h
Procedure, shortened: (§2)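 RAW 264.7 cells pretreated 1 h with compound in DMSO vehicle, then challenged with LPS (30 or 60 ng/mL) for 24 h at 37° C. Conditioned-media nitrite by Griess (520 nm, sodium nitrite standard curve, 1.5 μM cutoff) in μM; mouse TNF-α by ELISA as pg/ml or % change from control.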

RAW 264.7 cells = experiment: Cell viability (CellTiter 96 AQueous One) of LPS-challenged RAW 264.7 cells; format: cell-based, mouse; set-up: key: NS=not significant; a “+” sign=anti-inflammatory or increased cell numbers; a “−” sign=cell toxicity or pro-inflammatory
Procedure, shortened: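 RAW 264.7 murine macrophages pretreated 1 h with compound or DMSO vehicle, then challenged with LPS (serotype 055:B5) at 30 or 60 ng/mL final for 24 h. After media replacement, viability measured by tetrazolium (MTS) conversion, absorbance at 490 nm, reported as O.D.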

TNF-α protein = TNF-α protein level (ELISA) in LPS-challenged RAW 264.7 cells; format: cell-based, mouse; set-up: key: NS=not significant; a “+” sign=anti-inflammatory or increased cell numbers; a “−” sign=cell toxicity or pro-inflammatory; details: LPS 30 or 60 ng/mL, 24 h
Procedure, shortened: as §2

WT zebrafish embryos = experiment: WT zebrafish embryo development / teratogenicity; format: in vivo, zebrafish (Danio rerio); details: in words; at concentrations active in fli1:EGFP or mpo:GFP assays
Text: To determine the effects of the candidate compounds on embryonic development, two in vivo model systems (developing zebrafish and chicken embryos) were utilized.
Malformations in the development of the zebrafish embryo were noted, including inhibition of eye, otic vesicle and fin development (FIGS. 7A-7F). […] Embryos were screened at concentrations previously determined, in this study, to be anti-angiogenic or anti-inflammatory in the fli1:EGFP and mpo:GFP assays respectively.
as §1

O=C1NC(=S)CCC1N1C(=O)c2ccc(Cl)cc2C1=O (stereo not drawn) [Compound 23]
minimal effective concentration [1]: 10 µg/mL | mpo:GFP inflammation n (survived/tested) [1]: 13/35 | minimal effective concentration [2]: 10 µg/mL | fli1:EGFP angiogenesis n (survived/tested) [2]: 23/30 | effect on development / mortality of chicken embryos (chicken embryos): constriction in vasculature (white arrow) and necrosis (black arrow) of the chorioallantoic membrane

CO[C@@H]1[C@H](OC(=O)NC(=O)CCl)CC[C@]2(CO2)[C@H]1[C@@]1(C)O[C@@H]1CC=C(C)C [TNP-470, (Chloracetyl) carbamic acid (3R,4S,5S,6R)-5-methoxy-4-[(2R,3R)-2-methyl-3-(3-methyl-2-butenyl)oxiranyl]-1-oxaspiro[2.5]oct-6-yl ester, reference compound]
vessel outgrowth [3]: 9.44%±1.65

Nc1ccc2c(c1)C(=O)N(C1CCC(=O)NC1=O)C2=O (stereo not drawn) [Compound 11]
minimal effective concentration [1]: 10 µg/mL | mpo:GFP inflammation n (survived/tested) [1]: 16/22 | minimal effective concentration [2]: 50 µg/mL | fli1:EGFP angiogenesis n (survived/tested) [2]: 24/43 | effect on development / mortality of chicken embryos (chicken embryos): missing digits in the hindlimb; also recorded: limb reduction defect

CC(N1Cc2c(cccc2[N+](=O)[O-])C1=O)C12CC3CC(CC(C3)C1)C2 (stereo not drawn) [Compound 80]
Nitrite ([4]; 1 μM): NS | Nitrite ([4]; 10 μM): + | Nitrite ([4]; 30 μM): + | Viability (RAW 264.7 cells; 1 μM): NS | Viability (RAW 264.7 cells; 10 μM): − | Viability (RAW 264.7 cells; 30 μM): NS | effect on development / mortality of chicken embryos (chicken embryos): microophthalmia (asterisk), limb reduction (white arrow), and hemorrhaging throughout the body | TNF-α (TNF-α protein; 1 μM): NS | TNF-α (TNF-α protein; 10 μM): + | TNF-α (TNF-α protein; 30 μM): +

O=C1c2ccccc2CN1C12CC3CC(CC1C3)C2 [Compound 73]
Nitrite ([4]; 1 μM): NS | Nitrite ([4]; 10 μM): + | Nitrite ([4]; 30 μM): + | minimal effective concentration [1]: 10 µg/mL | mpo:GFP inflammation n (survived/tested) [1]: 7/13 | minimal effective concentration [2]: 10 µg/mL | fli1:EGFP angiogenesis n (survived/tested) [2]: 6/12 | Viability (RAW 264.7 cells; 1 μM): NS | Viability (RAW 264.7 cells; 10 μM): NS | Viability (RAW 264.7 cells; 30 μM): − | TNF-α (TNF-α protein; 1 μM): NS | TNF-α (TNF-α protein; 10 μM): NS | TNF-α (TNF-α protein; 30 μM): +

CC1(C)S[C@@H]2[C@H](N3Cc4ccccc4C3=O)C(=O)N2[C@H]1C(=O)O [Compound 65, (1)-(2S,5R,6R)-3,3-Dimethyl-7-oxo-6-(1-oxo-1,3-dihydro-1H-isoindol-2-yl)-4-thia-1-azabicyclo[3.2.0]heptane-2-carboxylic acid]
Nitrite ([4]; 1 μM): NS | Nitrite ([4]; 10 μM): NS | Nitrite ([4]; 30 μM): NS | minimal effective concentration [1]: 200 µg/mL | mpo:GFP inflammation n (survived/tested) [1]: 10/20 | minimal effective concentration [2]: 200 µg/mL | fli1:EGFP angiogenesis n (survived/tested) [2]: 13/13 | Viability (RAW 264.7 cells; 1 μM): NS | Viability (RAW 264.7 cells; 10 μM): NS | Viability (RAW 264.7 cells; 30 μM): NS | TNF-α (TNF-α protein; 1 μM): − | TNF-α (TNF-α protein; 10 μM): − | TNF-α (TNF-α protein; 30 μM): −

O=C1c2ccccc2C(=S)N1C1CCC(=S)NC1=S (stereo not drawn) [Compound 4]
minimal effective concentration [1]: 10 µg/mL | mpo:GFP inflammation n (survived/tested) [1]: 19/23 | minimal effective concentration [2]: 1.5 µg/mL | fli1:EGFP angiogenesis n (survived/tested) [2]: 4/11 | concentration at which anti-angiogenic activity was shown ([2]; exposure from 24 hpf, imaged at 48 hpf): 1.5 µg/mL | effect on development / mortality of zebrafish embryos (WT zebrafish embryos): defects and high mortality rates; also recorded: induced defects (e.g., microophthalmia and fin malformation) | effect on development / mortality of chicken embryos (chicken embryos): defects and high mortality rates

O=C1c2ccccc2CN1C1C2CC3CC(C2)CC1C3 (stereo not drawn) [Compound 72, 2,3-Dihydro-2-(tricyclo[3.3.1.1^3,7]dec-2-yl)-1H-isoindol-1-one]
Nitrite ([4]; 1 μM): NS | Nitrite ([4]; 10 μM): NS | Nitrite ([4]; 30 μM): + | minimal effective concentration [1]: 10 µg/mL | mpo:GFP inflammation n (survived/tested) [1]: 6/15 | minimal effective concentration [2]: 200 µg/mL | fli1:EGFP angiogenesis n (survived/tested) [2]: 9/20 | Viability (RAW 264.7 cells; 1 μM): + | Viability (RAW 264.7 cells; 10 μM): NS | Viability (RAW 264.7 cells; 30 μM): − | TNF-α (TNF-α protein; 1 μM): + | TNF-α (TNF-α protein; 10 μM): NS | TNF-α (TNF-α protein; 30 μM): +

O=C1c2cccc([N+](=O)[O-])c2CN1C1C2CC3CC(C2)CC1C3 (stereo not drawn) [Compound 82]
Nitrite ([4]; 1 μM): + | Nitrite ([4]; 10 μM): + | Nitrite ([4]; 30 μM): + | minimal effective concentration [1]: 5 µg/mL | mpo:GFP inflammation n (survived/tested) [1]: 8/22 | minimal effective concentration [2]: 5 µg/mL | fli1:EGFP angiogenesis n (survived/tested) [2]: 18/27 | Viability (RAW 264.7 cells; 1 μM): NS | Viability (RAW 264.7 cells; 10 μM): − | Viability (RAW 264.7 cells; 30 μM): − | TNF-α (TNF-α protein; 1 μM): NS | TNF-α (TNF-α protein; 10 μM): + | TNF-α (TNF-α protein; 30 μM): +

O=C1c2cccc([N+](=O)[O-])c2C(=O)N1C1CCC(=S)NC1=S (stereo not drawn) [Compound 9, 2-(2,6-Dithioxo-3-piperidinyl)-4-nitro-1H-isoindole-1,3(2H)-dione]
Nitrite ([4]; 30 μM): + | Nitrite ([4]; 60 μM): + | Nitrite ([4]; 100 μM): + | minimal effective concentration [1]: 10 µg/mL | mpo:GFP inflammation n (survived/tested) [1]: 12/12 | minimal effective concentration [2]: 10 µg/mL | fli1:EGFP angiogenesis n (survived/tested) [2]: 14/21 | Viability (RAW 264.7 cells; 30 μM): NS | Viability (RAW 264.7 cells; 60 μM): NS | Viability (RAW 264.7 cells; 100 μM): + | TNF-α (TNF-α protein; 30 μM): NS | TNF-α (TNF-α protein; 60 μM): NS | TNF-α (TNF-α protein; 100 μM): NS
